The record followed here is US6727264B1 (Synaptic Pharmaceutical Corporation, priority 2001, dated 2004).

The assay deals with rat MCH-1 (Rattus norvegicus, UniProt P97639). Briefly: Radioligand binding assay at cloned rat MCH1 receptor ([3H] Compound A). The conditions noted are these: cloned rat MCH1 receptor, 0.08 nM [3H] Compound A, read-out: Ki (nM) rMCH1. Also noted: host or cells: Peak rapid 293 (Peakr293) cells, transient calcium phosphate transfection, membranes.

Read-outs that look alike come from different tables or passages of the source.

rat MCH-1, sequence (P97639 whole entry): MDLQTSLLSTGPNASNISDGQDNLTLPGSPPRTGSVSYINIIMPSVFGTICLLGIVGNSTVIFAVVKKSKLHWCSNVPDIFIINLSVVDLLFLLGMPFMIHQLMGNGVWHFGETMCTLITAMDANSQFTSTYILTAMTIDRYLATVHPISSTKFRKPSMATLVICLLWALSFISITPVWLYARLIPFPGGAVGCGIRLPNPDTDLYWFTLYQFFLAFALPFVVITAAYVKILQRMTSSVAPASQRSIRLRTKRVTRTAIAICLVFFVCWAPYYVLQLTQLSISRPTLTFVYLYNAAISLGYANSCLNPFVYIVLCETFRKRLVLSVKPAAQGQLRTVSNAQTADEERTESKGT

Turning to `CC(C)C(=O)Nc1cccc(C2CCN(CCCc3c(-c4ccccc4)[nH]c4ccc(OC(F)(F)F)cc34)CC2)c1` [Example 389], the Ki (membranes from Peakr293 cells) worked out at 2.2 nM.
Turning to `CC(C)C(=O)Nc1cccc(C2CCN(CCC(Oc3ccc(F)cc3)c3ccc(Br)cc3)CC2)c1` (stereo not shown) [Example 160], the Ki (membranes from Peakr293 cells) came out at 6.2 nM.
Same read-out and setting: the value for `CC(C)C(=O)Nc1cccc(C2CCN(Cc3ccc4c(ccn4-c4ccc(F)cc4)c3)CC2)c1` [Example 101] was 7.8 nM.
As for `CC(C)C(=O)Nc1cccc(C2CCN(CCCCNC(=O)C(c3ccccc3)c3ccccc3)CC2)c1` [Example 653], the Ki (Peakr293 cell membranes) turned out to be 48.8 nM.
Regarding `CCc1ccc(-c2ccc3c(CN4CCC(c5cccc(NC(=O)C(C)C)c5)CC4)c[nH]c3c2)cc1` [Example 523], where the note is “Peakr293 cell membranes”, the inhibition constant Ki is 54.8 nM.
As for `Cc1cccc(OC(CCN2CCC(c3cccc(NC(=O)C(C)C)c3)CC2)c2ccc(Br)cc2)c1` (stereo not shown) [Example 144], the Ki (membranes from Peakr293 cells) is 13.4 nM.
For the compound `COc1ccc(C(O)CCN2CCC(c3cccc(NC(=O)C(C)C)c3)CC2)cc1` (stereo not shown) [Example 128, N-(3-{1-[3-HYDROXY-3-(4- METHOXYPHENYL)PROPYL]-4-PIPERIDINYL}PHENYL)-2-METHYLPROPANAMIDE], the Ki (membranes from Peakr293 cells) was found to be 329 nM.
For `CCCCN(CCCC)c1ccc(CN2CCC(c3cccc(NC(=O)C(C)C)c3)CC2)cc1` [Example 261], the Ki (membranes from Peakr293 cells) stood at 6.5 nM.
For the compound `CC(C)C(=O)Nc1cccc(C2CCN(Cc3cccc4cc[nH]c34)CC2)c1` [Example 832], the Ki (Peakr293 cell membranes) stood at 614 nM.
With `CC(C)C(=O)Nc1cccc(C2CCN(CC[C@H](NC(=O)c3ccco3)c3ccccc3)CC2)c1` [Example 326], where the note is “membranes from Peakr293 cells”, the Ki was found to be 19.2 nM.
`CC(C)C(=O)Nc1cccc(C2CCN(CCC(Oc3c(F)c(F)c(F)c(F)c3F)c3ccc(F)cc3)CC2)c1` (stereo not shown) [Example 132]: the Ki (membranes from Peakr293 cells) stood at 41.7 nM.
Still for that read-out and setting: the value for `COc1ccc(O[C@H](CCN2CCC(c3cccc(N(C)C(=O)C(C)C)c3)CC2)c2ccccc2)cc1OC` [Example 353] was 41.8 nM.
`CC(C)C(=O)Nc1cccc(C2CCN(CCCc3c(-c4ccc(F)cc4)n(C)c4ccccc34)CC2)c1` [Example 700]: for the setting “Peakr293 cell membranes”, the Ki turned out to be 2 nM.
In the case of `CC(C)C(=O)Nc1ccccc1C1CCN(CCCC(c2ccc(F)cc2)c2ccc(F)cc2)CC1` [Example 276], the Ki (membranes from Peakr293 cells) was found to be 734 nM.
As for `Cc1ccc2[nH]cc(CCCN3CCC(c4cccc(NC(=O)C(C)C)c4)CC3)c2c1` [Example 415], under “Peakr293 cell membranes”, the Ki was found to be 8.1 nM.
Still for that read-out and setting: for `COc1ccc(OC(CCCCCN2CCC(c3cccc(NC(=O)C(C)C)c3)CC2)c2ccccc2)cc1` (stereo not shown) [Example 898] the value was 33.7 nM; for `CC(C)C(=O)Nc1cccc(C2CCN(CC[C@H](Oc3ccc(Cl)c(Cl)c3)c3ccccc3)CC2)c1` [Example 808], 10.8 nM; for `CC(C)C(=O)Nc1cccc(C2CCN(Cc3c[nH]c4c(-c5cccc(Cl)c5)cccc34)CC2)c1` [Example 520], 135 nM.
With `CC(C)C(=O)Nc1cccc(C2CCN(CCCCC(=O)c3ccc(Cl)cc3)CC2)c1` [Example 675], the Ki (Peakr293 cell membranes) came to 32.6 nM.
On the same count and under the same terms, the value for `Cc1onc(-c2ccccc2Cl)c1C(=O)NCCCCN1CCC(c2cccc(NC(=O)C(C)C)c2)CC1` [Example 680] was 28.1 nM; that for `CC(C)C(=O)Nc1cccc(C2CCN(CCCc3c(-c4ccc([N+](=O)[O-])cc4)n(C)c4ccccc34)CC2)c1` [Example 788] was 11.1 nM.
For the compound `Cc1onc(-c2ccccc2Cl)c1C(=O)OCCCCN1CCC(c2cccc(NC(=O)C(C)C)c2)CC1` [Example 292, 4-{4-[3-(ISOBUTYRYLAMINO)PHENYL]-1-PIPERIDINYL}BUTYL 3-(2-CHLOROPHENYL)-5-METHYL-4-ISOXAZOLECARBOXYLATE], under “membranes from Peakr293 cells”, the Ki stood at 18.4 nM.
Turning to `CC(C)C(=O)Nc1cccc(C2CCN(CCCC(=O)c3ccc(C(C)C)cc3)CC2)c1` [Example 943], the Ki (Peakr293 cell membranes) worked out at 102 nM.
In the case of `CC(C)C(=O)Nc1cccc(C2CCN(CC[C@H](NC(=O)NCc3ccccc3)c3ccccc3)CC2)c1` [Example 609], where the note is “Peakr293 cell membranes”, the Ki came out at 35.4 nM.
Consider `CC(C)C(=O)Nc1cccc(C2CCN(C[C@@H](C)COc3ccccc3Br)CC2)c1` [Example 372], for which the Ki (membranes from Peakr293 cells) is 358 nM.
Take `CC(C)C(=O)Nc1cccc(C2CCN(C[C@H](C)COc3ccc(F)cc3)CC2)c1` [Example 359]: the Ki (membranes from Peakr293 cells) worked out at 83.2 nM.
On to `CC(C)C(=O)Nc1cccc(C2CCN(CCCc3c(-c4ccc(Br)cc4)n(-c4ccccc4)c4ccccc34)CC2)c1` [Example 760], for which, for the setting “Peakr293 cell membranes”, the Ki was found to be 92.3 nM.
Regarding `CC(C)C(=O)Nc1cccc(C2CCN(CCCCc3c(-c4ccccc4)[nH]c4ccc(OC(F)(F)F)cc34)CC2)c1` [Example 390], under “membranes from Peakr293 cells”, the Ki was determined as 1 nM.
As to `CC(C)C(=O)Nc1cccc(C2CCN(C[C@@H](C)COc3cccc(F)c3)CC2)c1` [Example 366], for the setting “membranes from Peakr293 cells”, the Ki was 646 nM.
Regarding `O=C(Nc1cccc(C2CCN(Cc3cn(-c4ccc(Cl)cc4)c4ccccc34)CC2)c1)C1CC1` [Example 462], for the setting “Peakr293 cell membranes”, the Ki came to 12.4 nM.
As for `CC(C)C(=O)Nc1cccc(C2CCN(CCCOC(=O)Cc3ccc(F)cc3)CC2)c1` [Example 286], under “membranes from Peakr293 cells”, the Ki was 67.8 nM.
With `CC(=O)c1ccc(-c2cccc3c(CN4CCC(c5cccc(NC(=O)C(C)C)c5)CC4)c[nH]c23)cc1` [Example 522], the Ki (Peakr293 cell membranes) worked out at 247 nM.
Same read-out and setting: the value for `CCC(=O)Nc1cccc(C2CCN(CCCCC(=O)c3ccc(F)cc3)CC2)c1` [Example 545] was 52 nM.
For the compound `CC(C)C(=O)Nc1cccc(C2CCN(Cc3ccc4c(ccn4-c4ccc(Cl)cc4)c3)CC2)c1` [Example 838], the Ki (Peakr293 cell membranes) is 11.2 nM.
As to `COc1ccc(OC(CCN2CCC(c3cccc(NC(=O)C(C)C)c3)CC2)c2ccc3c(c2)CCC3)cc1` (stereo not shown) [Example 161], where the note is “membranes from Peakr293 cells”, the Ki is 7.9 nM.
Turning to `COc1ccc(C(CCN2CCC(c3cccc(NC(=O)C(C)C)c3)CC2)Oc2ccccc2)cc1` (stereo not shown) [Example 173, N-(3-{1-[3-(4- METHOXYPHENYL)-3-PHENOXYPROPYL]-4-PIPERIDINYL}PHENYL)-2-METHYLPROPANAMIDE], the Ki (membranes from Peakr293 cells) is 112 nM.
Consider `CC(C)C(=O)Nc1cccc(C2CCN(Cc3ccc4c(c3)Cc3ccccc3-4)CC2)c1` [Example 257], for which, for the setting “membranes from Peakr293 cells”, the Ki was 37.2 nM.
Turning to `CC(C)C(=O)Nc1cccc(C2CCN(CCCOc3ccccc3Cl)CC2)c1` [Example 348], the Ki (membranes from Peakr293 cells) was determined as 84 nM.
Take `COc1cccc2c(CCN3CCC(c4cccc(NC(=O)C(C)C)c4)CC3)c(-c3ccccc3)[nH]c12` [Example 400]: the Ki (Peakr293 cell membranes) worked out at 43.9 nM.
As for `Cc1ccc2[nH]c(-c3cccc(Cl)c3)c(CCCN3CCC(c4cccc(NC(=O)C(C)C)c4)CC3)c2c1` [Example 727], under “Peakr293 cell membranes”, the Ki worked out at 3.4 nM.
Consider `CC(C)C(=O)Nc1cccc(C2CCN(CC[C@H](NC(=O)c3cc(Cl)cc(Cl)c3)c3ccccc3)CC2)c1` [Example 306], for which the Ki (membranes from Peakr293 cells) came out at 168 nM.
Take `CC(C)C(=O)Nc1cccc(C2CCN(Cc3ccc4c(ccn4-c4ccc(C(F)(F)F)cc4)c3)CC2)c1` [Example 845]: the Ki (Peakr293 cell membranes) turned out to be 43.1 nM.
In the case of `CC(C)C(=O)Nc1cccc(C2CCN(CCCOc3ccccc3F)CC2)c1` [Example 343], the Ki (membranes from Peakr293 cells) was determined as 195 nM.
Take `CC(C)C(=O)Nc1cccc(C2CCN(CCCCC(O)c3ccc(Cl)cc3)CC2)c1` (stereo not shown) [Example 819]: where the note is “Peakr293 cell membranes”, the Ki is 80.2 nM.
In the case of `CC(C)C(=O)Nc1cccc(C2CCN(CCCc3c(-c4cccc([N+](=O)[O-])c4)[nH]c4ccc(OC(F)(F)F)cc34)CC2)c1` [Example 768], the Ki (Peakr293 cell membranes) worked out at 17.5 nM.
As to `CC(C)C(=O)Nc1cccc(C2CCN(Cc3ccc(-c4cccs4)s3)CC2)c1` [Example 236], the Ki (membranes from Peakr293 cells) was 97.7 nM.
For the compound `COc1ccc(-n2ccc3cc(CN4CCC(c5cccc(NC(=O)C(C)C)c5)CC4)ccc32)cc1` [Example 833], the Ki (Peakr293 cell membranes) worked out at 27.5 nM.
`CCC(=O)Nc1cccc(C2CCN(CCCC(=O)c3ccc(F)cc3)CC2)c1` [Example 535]: the Ki (Peakr293 cell membranes) was 28.1 nM.
Consider `CC(C)C(=O)Nc1cccc(C2CCN(CC[C@H](NS(=O)(=O)c3cc(Cl)ccc3Cl)c3ccccc3)CC2)c1` [Example 600], for which the Ki (Peakr293 cell membranes) amounted to 41.3 nM.
Turning to `CC(C)C(=O)Nc1cccc(C2CCN(Cc3ccc(-c4ccccc4)cc3)CC2)c1` [Example 260], the Ki (membranes from Peakr293 cells) amounted to 77.7 nM.
For the compound `CCn1c2ccccc2c2cc(CN3CCC(c4cccc(NC(=O)C5CC5)c4)CC3)ccc21` [Example 823], the Ki (Peakr293 cell membranes) came to 2.7 nM.
Regarding `CC(C)C(=O)Nc1cccc(C2CCN(CCCc3ccccc3)CC2)c1` [Example 804], the Ki (Peakr293 cell membranes) came out at 89.2 nM.
Take `CC(C)C(=O)Nc1cccc(C2CCN(CCCCNC(=O)c3cccc(Cl)c3)CC2)c1` [Example 657]: the Ki (Peakr293 cell membranes) is 77.9 nM.
As to `CC(C)C(=O)Nc1cccc(C2CCN(C(C)CCC(=O)c3ccccc3)CC2)c1` (stereo not shown) [Example 570], the Ki (Peakr293 cell membranes) stood at 136 nM.
For the compound `CC(C)C(=O)Nc1cccc(C2CCN(CCCc3c(-c4ccccc4I)[nH]c4ccc(OC(F)(F)F)cc34)CC2)c1` [Example 786], the Ki (Peakr293 cell membranes) worked out at 19.7 nM.
As to `CC(C)C(=O)Nc1cccc(C2CCN(CCCc3c(-c4cccc(I)c4)[nH]c4c3ccc3ccccc34)CC2)c1` [Example 740], the Ki (Peakr293 cell membranes) came out at 12.2 nM.
The same measure, in the same setting: the value for `CC(C)C(=O)Nc1cccc(C2CCN(CCCCCCNC(=O)Nc3ccc(Cl)cc3Cl)CC2)c1` [Example 632] was 76.6 nM; that for `CC(=O)c1cccc(OC(CCCCCN2CCC(c3cccc(NC(=O)C(C)C)c3)CC2)c2ccccc2)c1` (stereo not shown) [Example 903] was 12.2 nM; that for `COc1cccc2c(CCN3CCC(c4cccc(NC(=O)C(C)C)c4)CC3)c[nH]c12` [Example 419] was 83.9 nM.
Consider `Cc1ccc(NC(=O)C(C)C)cc1C1CCN(CCCC(c2ccc(F)cc2)c2ccc(F)cc2)CC1` [Example 275], for which, under “membranes from Peakr293 cells”, the Ki came to 3.1 nM.
For `CC(C)C(=O)Nc1cccc(C2CCN(CCCCCCNC(=O)c3scc(S(=O)(=O)C(C)C)c3Cl)CC2)c1` [Example 630], where the note is “Peakr293 cell membranes”, the Ki stood at 202 nM.
`CC(C)C(=O)Nc1cccc(C2CCN(CCCc3c(-c4ccc([N+](=O)[O-])cc4)n(-c4ccccc4)c4ccccc34)CC2)c1` [Example 789]: the Ki (Peakr293 cell membranes) came out at 36.4 nM.
As to `Cc1cccc2c(CCN3CCC(c4cccc(NC(=O)C(C)C)c4)CC3)c[nH]c12` [Example 409], the Ki (Peakr293 cell membranes) amounted to 96.7 nM.
Take `CC(C)C(=O)Nc1cccc(C2CCN(CC[C@H](NC(=O)Nc3ccccc3)c3ccccc3)CC2)c1` [Example 605]: under “Peakr293 cell membranes”, the Ki is 94.5 nM.

Usually Ki stands for a measure of affinity in units of concentration, obtained from inhibition or displacement.
